Several values for one entry are separate records, joined by “and”; a condition that tells them apart may be missing. Identical values can stand only once. Inconclusive results and toxic doses are left out.
System: BDF1 mice, P388 leukemia ip, median survival T/C
Assay: NCI In Vivo Anticancer Drug Screen. Data for tumor model P388 Leukemia (intraperitoneal) in B6D2F1 (BDF1) mice
Conditions: endpoint: median survival time, higher = longer survival
Procedure, shortened: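 Mice carrying the transplantable tumour receive compound or vehicle. Survival is followed in each arm, and the treated measure is divided by the vehicle measure.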

[1] = dose: 25.0 mg/kg/injection, schedule: Q01DX009 (ip), vehicle: saline
[2] = dose: 50.0 mg/kg/injection, schedule: Q01DX009 (ip), vehicle: saline
[3] = dose: 100.0 mg/kg/injection, schedule: Q01DX009 (ip), vehicle: saline
[4] = dose: 100.0 mg/kg/injection, schedule: Q04DX003 (ip), vehicle: saline
[5] = dose: 200.0 mg/kg/injection, schedule: Q04DX003 (ip), vehicle: saline
[6] = dose: 400.0 mg/kg/injection, schedule: Q04DX003 (ip), vehicle: saline
[7] = dose: 100.0 mg/kg/injection, schedule: Q01DX009 (ip), vehicle: saline with Tween-80
[8] = dose: 100.0 mg/kg/injection, schedule: Q04DX003 (ip), vehicle: saline with Tween-80
[9] = dose: 200.0 mg/kg/injection, schedule: Q01DX009 (ip), vehicle: saline with Tween-80
[10] = dose: 200.0 mg/kg/injection, schedule: Q04DX003 (ip), vehicle: saline with Tween-80
[11] = dose: 400.0 mg/kg/injection, schedule: Q01DX009 (ip), vehicle: saline
[12] = dose: 200.0 mg/kg/injection, schedule: Q01DX009 (ip), vehicle: saline

Structure (SMILES): Nc1nc(CCl)nc(Nc2ccccc2)n1
- T/C (dose: 12.5 mg/kg/injection, schedule: Q01DX009 (ip), vehicle: Klucel (hydroxypropylcellulose) (HPC)): 100 % of control
- T/C (dose: 25.0 mg/kg/injection, schedule: Q01DX009 (ip), vehicle: Klucel (hydroxypropylcellulose) (HPC)): 98 % of control
- T/C (dose: 50.0 mg/kg/injection, schedule: Q01DX009 (ip), vehicle: Klucel (hydroxypropylcellulose) (HPC)): 102 % of control
- T/C (dose: 100.0 mg/kg/injection, schedule: Q01DX009 (ip), vehicle: Klucel (hydroxypropylcellulose) (HPC)): 100 % of control

Structure (SMILES): OCc1ccn2c1C(O)CC2 (centres undefined)
- T/C (dose: 12.5 mg/kg/injection, schedule: Q01DX009 (ip), vehicle: other): 112 % of control
- T/C (dose: 25.0 mg/kg/injection, schedule: Q01DX009 (ip), vehicle: other): 102 % of control
- T/C [1]: 115 % of control
- T/C (dose: 50.0 mg/kg/injection, schedule: Q01DX009 (ip), vehicle: other): 100 % of control
- T/C [2]: 165 % of control
- T/C (dose: 100.0 mg/kg/injection, schedule: Q01DX009 (ip), vehicle: other): 100 % of control
- T/C [3]: 240 % of control and 100 % of control

Structure (SMILES): CS(=O)(=O)OCCCCCOS(C)(=O)=O
- T/C (dose: 12.5 mg/kg/injection, schedule: Q01DX009 (ip), vehicle: saline): 95 % of control
- T/C [1]: 100 % of control
- T/C (dose: 50.0 mg/kg/injection, schedule: Q04DX003 (ip), vehicle: saline): 113 % of control

Structure (SMILES): ClCC[N-]CC[N-]CCCl.ClCC[N-]CC[N-]CCCl.[O-][Cl+3]([O-])([O-])O.[Zn+2]
- T/C (dose: 2.5 mg/kg/injection, schedule: Q04DX003 (ip), vehicle: Klucel (hydroxypropylcellulose) (HPC)): 105 % of control
- T/C (dose: 5.0 mg/kg/injection, schedule: Q03DX003 (ip), vehicle: saline): 110 % of control
- T/C (dose: 5.0 mg/kg/injection, schedule: Q04DX003 (ip), vehicle: Klucel (hydroxypropylcellulose) (HPC)): 112 % of control
- T/C (dose: 10.0 mg/kg/injection, schedule: Q04DX003 (ip), vehicle: Klucel (hydroxypropylcellulose) (HPC)): 108 % of control
- T/C (dose: 20.0 mg/kg/injection, schedule: Q04DX003 (ip), vehicle: Klucel (hydroxypropylcellulose) (HPC)): 124 % of control
- T/C (dose: 40.0 mg/kg/injection, schedule: Q03DX003 (ip), vehicle: saline): 75 % of control
- T/C (dose: 40.0 mg/kg/injection, schedule: Q04DX003 (ip), vehicle: Klucel (hydroxypropylcellulose) (HPC)): 154 % of control
- T/C (dose: 80.0 mg/kg/injection, schedule: Q03DX003 (ip), vehicle: saline): 33 % of control

Structure (SMILES): Cc1ccc(CNc2ccccc2)cc1
- T/C (dose: 25.0 mg/kg/injection, schedule: Q04DX003 (ip), vehicle: other): 120 % of control
- T/C (dose: 50.0 mg/kg/injection, schedule: Q04DX003 (ip), vehicle: other): 105 % of control
- T/C (dose: 100.0 mg/kg/injection, schedule: Q04DX003 (ip), vehicle: other): 110 % of control

Structure (SMILES): C(#CCN1CCOCC1)CCCN1CCOCC1
- T/C [4]: 95 % of control
- T/C [5]: 100 % of control
- T/C [6]: 100 % of control

Structure (SMILES): SC1CC[N-]CC1.SC1CC[N-]CC1.[Cl][Pt+2][Cl]
- T/C (dose: 50.0 mg/kg/injection, schedule: Q01DX009 (ip), vehicle: water): 107 % of control
- T/C (dose: 100.0 mg/kg/injection, schedule: Q01DX009 (ip), vehicle: water): 91 % of control
- T/C (dose: 100.0 mg/kg/injection, schedule: Q04DX003 (ip), vehicle: water): 98 % of control
- T/C (dose: 200.0 mg/kg/injection, schedule: Q04DX003 (ip), vehicle: water): 98 % of control
- T/C (dose: 400.0 mg/kg/injection, schedule: Q04DX003 (ip), vehicle: water): 96 % of control

Structure (SMILES): OC1(O)CCN(Cc2ccccc2)CC1
- T/C (dose: 50.0 mg/kg/injection, schedule: Q01DX009 (ip), vehicle: saline with Tween-80): 122 % of control
- T/C (dose: 50.0 mg/kg/injection, schedule: Q04DX003 (ip), vehicle: saline with Tween-80): 95 % of control
- T/C [7]: 104 % of control
- T/C [8]: 100 % of control
- T/C [9]: 95 % of control
- T/C [10]: 105 % of control

Structure (SMILES): O=S(=O)(O)CCN(CCO)CCO
- T/C [3]: 87 % of control
- T/C [4]: 109 % of control
- T/C [5]: 104 % of control
- T/C [11]: 87 % of control
- T/C [6]: 95 % of control

Structure (SMILES): O=C1C=CC(=O)c2c(O)cccc21
- T/C (dose: 1.56 mg/kg/injection, schedule: Q01DX009 (ip), vehicle: saline with Tween-80): 90 % of control
- T/C (dose: 3.13 mg/kg/injection, schedule: Q01DX009 (ip), vehicle: saline with Tween-80): 95 % of control
- T/C (dose: 6.25 mg/kg/injection, schedule: Q01DX009 (ip), vehicle: saline with Tween-80): 95 % of control

Structure (SMILES): C=C1C(=O)OC2C1CCC(=C)C1CC(O)C(=C)C12 (centres undefined)
- T/C (dose: 7.4 mg/kg/injection, schedule: Q01DX009 (ip), vehicle: saline with Tween-80): 91 % of control
- T/C (dose: 11.0 mg/kg/injection, schedule: Q01DX009 (ip), vehicle: saline with Tween-80): 104 % of control
- T/C (dose: 16.0 mg/kg/injection, schedule: Q01DX009 (ip), vehicle: saline with Tween-80): 91 % of control
- T/C (dose: 25.0 mg/kg/injection, schedule: Q01DX009 (ip), vehicle: saline with Tween-80): 100 % of control

Structure (SMILES): c1ccc2c(c1)ccc1cc3c(ccc4ccccc43)cc12
- T/C [7]: 120 % of control
- T/C [8]: 118 % of control
- T/C [9]: 112 % of control
- T/C [10]: 109 % of control
- T/C (dose: 400.0 mg/kg/injection, schedule: Q04DX003 (ip), vehicle: saline with Tween-80): 109 % of control

Structure (SMILES): [Cl][Pt+2][Cl].[NH-]CC1(C[NH-])CCC1
- T/C (dose: 0.4 mg/kg/injection, schedule: Q01DX009 (ip), vehicle: suspension in saline): 156 % of control
- T/C (dose: 0.79 mg/kg/injection, schedule: Q01DX009 (ip), vehicle: suspension in saline): 154 % of control
- T/C (dose: 1.56 mg/kg/injection, schedule: Q01DX009 (ip), vehicle: suspension in saline): 250 % of control
- T/C (dose: 3.12 mg/kg/injection, schedule: Q01DX009 (ip), vehicle: suspension in saline): 250 % of control
- T/C (dose: 6.25 mg/kg/injection, schedule: Q01DX009 (ip), vehicle: suspension in saline): 169 % of control
- T/C (dose: 12.5 mg/kg/injection, schedule: Q01DX009 (ip), vehicle: suspension in saline): 104 % of control

Structure (SMILES): C/C(CCC(=O)O)=N/O
- T/C [3]: 110 % of control
- T/C [4]: 104 % of control
- T/C [12]: 120 % of control
- T/C [5]: 108 % of control
- T/C [6]: 116 % of control

Structure (SMILES): CC(=O)Nc1ccc(N=Nc2c(C)nn(C(=N)N)c2C)cc1
- T/C [1]: 97 % of control
- T/C [2]: 97 % of control

Structure (SMILES): C=C(C)c1c2ccccc2cc2cccc(Sc3ccccc3)c12
- T/C [7]: 100 % of control
- T/C [9]: 95 % of control
- T/C (dose: 400.0 mg/kg/injection, schedule: Q01DX009 (ip), vehicle: saline with Tween-80): 100 % of control

Structure (SMILES): COC1OC(CNC(=O)N(C)N=O)C(O)C(O)C1O (centres undefined)
- T/C [3]: 164 % of control
- T/C [12]: 240 % of control
- T/C (dose: 266.0 mg/kg/injection, schedule: Q04DX003 (ip), vehicle: saline): 154 % of control
- T/C [11]: 309 % of control
- T/C [6]: 162 % of control
- T/C (dose: 600.0 mg/kg/injection, schedule: Q04DX003 (ip), vehicle: saline): 216 % of control

Structure (SMILES): CCOC(=O)C(C1=NC(C)(C)CC(C)O1)C1CCCCC1 (centres undefined)
- T/C (dose: 50.0 mg/kg/injection, schedule: Q01DX001 (ip), vehicle: saline sonified): 120 % of control
- T/C (dose: 100.0 mg/kg/injection, schedule: Q01DX001 (ip), vehicle: saline sonified): 110 % of control
- T/C (dose: 200.0 mg/kg/injection, schedule: Q01DX001 (ip), vehicle: saline sonified): 105 % of control

Structure (SMILES): NC(=O)C1(N2CCCCC2)CCN(CCCC(=O)c2ccc(F)cc2)CC1
- T/C (dose: 37.5 mg/kg/injection, schedule: Q01DX009 (ip), vehicle: Klucel (hydroxypropylcellulose) (HPC)): 107 % of control
- T/C (dose: 150.0 mg/kg/injection, schedule: Q01DX009 (ip), vehicle: Klucel (hydroxypropylcellulose) (HPC)): 117 % of control

Structure (SMILES): CC(C)N(C(C)C)C(C)CCNc1c2ccccc2nc2cc(Cl)ccc12 (centres undefined)
- T/C (dose: 6.0 mg/kg/injection, schedule: Q01DX009 (ip), vehicle: saline): 100 % of control
- T/C (dose: 12.0 mg/kg/injection, schedule: Q01DX009 (ip), vehicle: saline): 105 % of control
- T/C (dose: 24.0 mg/kg/injection, schedule: Q01DX009 (ip), vehicle: saline): 100 % of control

Structure (SMILES): CCCCOc1ccc(C(=O)N/N=C(\C)[C@]2(O)Cc3c(O)c4c(c(O)c3[C@@H](OC3CC(N)C(O)C(C)O3)C2)C(=O)c2c(OC)cccc2C4=O)cc1 (some centres undefined)
- T/C (dose: 1.0 mg/kg/injection, schedule: Q01DX009 (ip), vehicle: water): 173 % of control
- T/C (dose: 2.0 mg/kg/injection, schedule: Q01DX009 (ip), vehicle: water): 157 % of control and 173 % of control
- T/C (dose: 4.0 mg/kg/injection, schedule: Q01DX009 (ip), vehicle: water): 169 % of control

Source: PubChem BioAssay AID328 (DTP/NCI, 2004)
